Results published in patent US11272709B2, “Amidine substituted benzoyl derivatives useful as herbicides” (Syngenta Participations AG, priority 2018, dated 2022).

How the values were obtained:
Format in all cases: in vivo
Conditions in all cases: evaluated after 13 days
[1] = system: Ipomoea hederacea (IPOHE); experiment: Post-emergence herbicidal glasshouse test, Ipomoea hederacea (IPOHE)
Protocol: (§1) Seeds of a variety of test species are sown in standard soil in pots (Lolium perenne (LOLPE), Amaranthus retoflexus (AMARE), Abutilon theophrasti (ABUTH), Setaria faberi (SETFA), Echinochloa crus-galli (ECHCG), Ipomoea hederacea (IPOHE)). After cultivation for one day (pre-emergence) or after 8 days cultivation (post-emergence) under controlled conditions in a glasshouse (at 24/16° C., day/night; 14 hours light; 65% humidity), the plants are sprayed with an aqueous spray solution derived from the formulation of the technical active ingredient in acetone/water (50:50) solution containing 0.5% Tween 20 (polyoxyethelyene sorbitan monolaurate, CAS RN 9005-64-5). Compounds are applied at 500 g/h unless otherwise indicated. The test plants are then grown in a glasshouse under controlled conditions in a glasshouse (at 24/16° C., day/night; 14 hours light; 65% humidity) and watered twice daily. After 13 days for pre and post-emergence, the test is evaluated for the percentage damage caused to the plant. The biological activities are shown in the following table on a five point scale (5=80-100%; 4=60-79%; 3=40-59%; 2=20-39%; 1=0-19%).

[2] = system: Setaria faberi (SETFA); experiment: Pre-emergence herbicidal glasshouse test, Setaria faberi (SETFA)
Protocol: as §1

[3] = system: Amaranthus retoflexus (AMARE); experiment: Post-emergence herbicidal glasshouse test, Amaranthus retoflexus (AMARE)
Protocol: as §1

[4] = system: Echinochloa crus-galli (ECHCG); experiment: Pre-emergence herbicidal glasshouse test, Echinochloa crus-galli (ECHCG)
Protocol: as §1

[5] = system: Echinochloa crus-galli (ECHCG); experiment: Post-emergence herbicidal glasshouse test, Echinochloa crus-galli (ECHCG)
Protocol: as §1

[6] = system: Amaranthus retoflexus (AMARE); experiment: Pre-emergence herbicidal glasshouse test, Amaranthus retoflexus (AMARE)
Protocol: as §1

[7] = system: Ipomoea hederacea (IPOHE); experiment: Pre-emergence herbicidal glasshouse test, Ipomoea hederacea (IPOHE)
Protocol: as §1

[8] = system: Abutilon theophrasti (ABUTH); experiment: Post-emergence herbicidal glasshouse test, Abutilon theophrasti (ABUTH)
Protocol: as §1

[9] = system: Abutilon theophrasti (ABUTH); experiment: Pre-emergence herbicidal glasshouse test, Abutilon theophrasti (ABUTH)
Protocol: as §1

[10] = system: Setaria faberi (SETFA); experiment: Post-emergence herbicidal glasshouse test, Setaria faberi (SETFA)
Protocol: as §1

| Compound | POST Application IPOHE, percentage damage (five point scale) ([1]; 500 g/h) | PRE Application SETFA, percentage damage (five point scale) ([2]; 500 g/h) | POST Application AMARE, percentage damage (five point scale) ([3]; 500 g/h) | PRE Application ECHCG, percentage damage (five point scale) ([4]; 500 g/h) | POST Application ECHCG, percentage damage (five point scale) ([5]; 500 g/h) | PRE Application AMARE, percentage damage (five point scale) ([6]; 500 g/h) | PRE Application IPOHE, percentage damage (five point scale) ([7]; 500 g/h) | POST Application ABUTH, percentage damage (five point scale) ([8]; 500 g/h) | PRE Application ABUTH, percentage damage (five point scale) ([9]; 500 g/h) | POST Application SETFA, percentage damage (five point scale) ([10]; 500 g/h) | POST Application IPOHE, percentage damage (five point scale) ([1]; applied at 250 g/ha) | PRE Application SETFA, percentage damage (five point scale) ([2]; applied at 250 g/ha) | POST Application AMARE, percentage damage (five point scale) ([3]; applied at 250 g/ha) | PRE Application ECHCG, percentage damage (five point scale) ([4]; applied at 250 g/ha) | POST Application ECHCG, percentage damage (five point scale) ([5]; applied at 250 g/ha) | PRE Application AMARE, percentage damage (five point scale) ([6]; applied at 250 g/ha) | PRE Application IPOHE, percentage damage (five point scale) ([7]; applied at 250 g/ha) | POST Application ABUTH, percentage damage (five point scale) ([8]; applied at 250 g/ha) | PRE Application ABUTH, percentage damage (five point scale) ([9]; applied at 250 g/ha) | POST Application SETFA, percentage damage (five point scale) ([10]; applied at 250 g/ha) |
| --- | --- | --- | --- | --- | --- | --- | --- | --- | --- | --- | --- | --- | --- | --- | --- | --- | --- | --- | --- | --- |
| CN(C)C(=Nc1c(C(F)(F)F)ccc(C(=O)Nc2nnnn2C)c1Cl)C(F)(F)F [Compound 1.139] | 4 (4=60-79%) | 5 (5=80-100%) | 5 (5=80-100%) | 5 (5=80-100%) | 5 (5=80-100%) | 5 (5=80-100%) | 5 (5=80-100%) | 5 (5=80-100%) | 5 (5=80-100%) | 5 (5=80-100%) |  |  |  |  |  |  |  |  |  |  |
| CC(C)N(C)C=Nc1c(C(F)(F)F)ccc(C(=O)Nc2nnnn2C)c1Cl [Compound 1.140] | 5 (5=80-100%) | 5 (5=80-100%) | 5 (5=80-100%) | 5 (5=80-100%) | 5 (5=80-100%) | 5 (5=80-100%) | 5 (5=80-100%) | 5 (5=80-100%) | 5 (5=80-100%) | 5 (5=80-100%) |  |  |  |  |  |  |  |  |  |  |
| CN(C=Nc1c(S(C)(=O)=O)ccc(C(=O)Nc2nnnn2C)c1Cl)CC(F)(F)F [Compound 1.142] |  |  |  |  |  |  |  |  |  |  | 5 (5=80-100%) | 5 (5=80-100%) | 5 (5=80-100%) | 5 (5=80-100%) | 5 (5=80-100%) | 5 (5=80-100%) | 4 (4=60-79%) | 5 (5=80-100%) | 5 (5=80-100%) | 5 (5=80-100%) |
| Cc1c(C(=O)Nc2nnnn2C)ccc(S(C)(=O)=O)c1N=CN(C)C(C)C [Compound 1.144] | 5 (5=80-100%) | 5 (5=80-100%) | 5 (5=80-100%) | 5 (5=80-100%) | 5 (5=80-100%) | 5 (5=80-100%) | 5 (5=80-100%) | 5 (5=80-100%) | 5 (5=80-100%) | 5 (5=80-100%) |  |  |  |  |  |  |  |  |  |  |
| CN(C=Nc1c(S(C)(=O)=O)ccc(C(=O)Nc2nnnn2C)c1Cl)c1ccccc1 [Compound 1.145] | 4 (4=60-79%) | 5 (5=80-100%) | 4 (4=60-79%) | 5 (5=80-100%) | 5 (5=80-100%) | 5 (5=80-100%) | 4 (4=60-79%) | 3 (3=40-59%) | 5 (5=80-100%) | 5 (5=80-100%) |  |  |  |  |  |  |  |  |  |  |
| CC(=Nc1c(C(F)(F)F)ccc(C(=O)Nc2nnnn2C)c1Cl)N(C)C [Compound 1.148] | 4 (4=60-79%) | 5 (5=80-100%) | 5 (5=80-100%) | 5 (5=80-100%) | 5 (5=80-100%) | 5 (5=80-100%) | 5 (5=80-100%) | 4 (4=60-79%) | 5 (5=80-100%) | 5 (5=80-100%) |  |  |  |  |  |  |  |  |  |  |
| Cc1nnc(NC(=O)c2ccc(C(F)(F)F)c(N=CN(C)C)c2C)o1 [Compound 2.017] | 4 (4=60-79%) | 4 (4=60-79%) | 5 (5=80-100%) | 5 (5=80-100%) | 5 (5=80-100%) | 5 (5=80-100%) | 5 (5=80-100%) | 4 (4=60-79%) | 5 (5=80-100%) | 5 (5=80-100%) |  |  |  |  |  |  |  |  |  |  |
| Cc1nnc(NC(=O)c2ccc(S(C)(=O)=O)c(N=CN(C)C)c2C)o1 [Compound 2.025] | 5 (5=80-100%) | 5 (5=80-100%) | 5 (5=80-100%) | 5 (5=80-100%) | 5 (5=80-100%) | 5 (5=80-100%) | 3 (3=40-59%) | 5 (5=80-100%) | 5 (5=80-100%) | 5 (5=80-100%) |  |  |  |  |  |  |  |  |  |  |
| CCN(C)C=Nc1c(S(C)(=O)=O)ccc(C(=O)Nc2nnc(C)o2)c1C [Compound 2.027] | 5 (5=80-100%) | 5 (5=80-100%) | 5 (5=80-100%) | 5 (5=80-100%) | 5 (5=80-100%) | 5 (5=80-100%) | 4 (4=60-79%) | 5 (5=80-100%) | 5 (5=80-100%) | 5 (5=80-100%) |  |  |  |  |  |  |  |  |  |  |
| CCN(C=Nc1c(S(C)(=O)=O)ccc(C(=O)Nc2nnc(C)o2)c1C)CC [Compound 2.031] | 4 (4=60-79%) | 5 (5=80-100%) | 5 (5=80-100%) | 5 (5=80-100%) | 5 (5=80-100%) | 5 (5=80-100%) | 4 (4=60-79%) | 5 (5=80-100%) | 4 (4=60-79%) | 5 (5=80-100%) |  |  |  |  |  |  |  |  |  |  |
| Cc1nnc(NC(=O)c2ccc(C(F)(F)F)c(/N=C/N(C)C)c2Cl)o1 [Compound 2.049, 2-chloro-3-[(E)-dimethylaminomethyleneamino]-N-(5-methyl-1,3,4-oxadiazol-2-yl)-4-(trifluoromethyl)benzamide] | 5 (5=80-100%) | 5 (5=80-100%) | 5 (5=80-100%) | 5 (5=80-100%) | 5 (5=80-100%) | 5 (5=80-100%) | 5 (5=80-100%) | 5 (5=80-100%) | 5 (5=80-100%) | 5 (5=80-100%) |  |  |  |  |  |  |  |  |  |  |
| CCN(C=Nc1c(C(F)(F)F)ccc(C(=O)Nc2nnc(C)o2)c1Cl)CC [Compound 2.055] | 4 (4=60-79%) | 5 (5=80-100%) | 5 (5=80-100%) | 5 (5=80-100%) | 5 (5=80-100%) | 5 (5=80-100%) | 5 (5=80-100%) | 4 (4=60-79%) | 5 (5=80-100%) | 5 (5=80-100%) |  |  |  |  |  |  |  |  |  |  |
